Source: ChEMBL document CHEMBL1128878, “Simple compounds, 2-alkyl-2-amino-1,3-propanediols have potent immunosuppressive activity” (Bioorg Med Chem Lett, 1995)

Assays:
[1] = species: Mus musculus; experiment: Inhibition of mouse allogenic mixed leukocyte response (MLR); format: functional
[2] = system: Rattus norvegicus; experiment: Compound was evaluated in vivo for the immunosuppressive activity on rat skin allograft at ip dose of 0.03 mg/Kg; format: functional
[3] = system: Rattus norvegicus; experiment: Compound was evaluated in vivo for the immunosuppressive activity on rat skin allograft at ip dose of 0.3 mg/Kg; format: functional
[4] = system: Rattus norvegicus; experiment: Compound was evaluated in vivo for the immunosuppressive activity on rat skin allograft at ip dose of 10 mg/Kg; toxic (animals died); format: ADME, organism-based
[5] = system: Rattus norvegicus; experiment: Compound was evaluated in vivo for the immunosuppressive activity on rat skin allograft at ip dose of 0.1 mg/Kg; format: functional
[6] = system: Rattus norvegicus; experiment: Compound was evaluated in vivo for the immunosuppressive activity on rat skin allograft at ip dose of 3 mg/Kg; format: functional
[7] = system: Rattus norvegicus; experiment: Compound was evaluated in vivo for the immunosuppressive activity on rat skin allograft at ip dose of 1 mg/Kg; format: functional
[8] = system: Rattus norvegicus; experiment: Compound was evaluated in vivo for the immunosuppressive activity on rat skin allograft at ip dose of 30 mg/Kg; format: functional
[9] = system: Rattus norvegicus; experiment: Compound was evaluated in vivo for the immunosuppressive activity on rat skin allograft at ip dose of 10 mg/Kg; format: functional
[10] = system: Rattus norvegicus; experiment: Compound was evaluated in vivo for the immunosuppressive activity on rat skin allograft at ip dose of 1 mg/Kg; toxic (animals died); format: functional, organism-based

| Compound | IC50 [1] [nM] | further results |
| --- | --- | --- |
| CCCCCCC(O)CCCCCC/C=C/C[C@@H](O)[C@H](O)C(N)(CO)CO (some centres undefined) | 4.7 | – |
| CCCCCCCCCCCCCCCC(N)(CO)CO | 2.9 | MST [2]: 10.8 days; MST [3]: 33.5 days; MST [4]: Toxic (animals died); MST [5]: 14 days; MST [6]: 57.8 days; MST [7]: 45.3 days |
| C/C=C/C[C@@H](C)[C@@H](O)[C@H]1C(=O)N[C@@H](CC)C(=O)N(C)CC(=O)N(C)[C@@H](CC(C)C)C(=O)N[C@@H](C(C)C)C(=O)N(C)[C@@H](CC(C)C)C(=O)N[C@@H](C)C(=O)N[C@H](C)C(=O)N(C)[C@@H](CC(C)C)C(=O)N(C)[C@@H](CC(C)C)C(=O)N(C)[C@@H](C(C)C)C(=O)N1C [CYCLOSPORINE] | – | MST [8]: 19.2 days; MST [6]: 10.8 days; MST [9]: 15.2 days; MST [7]: 7.3 days |
| CCCCCCCCCCCCC(N)(CO)CO | 270 | – |
| CCCCCCC(=O)CCCCCC/C=C/C[C@@H](O)[C@H](O)[C@@](N)(CO)C(=O)O [MYRIOCIN] | 3 | MST [2]: 7.8 days; MST [3]: 11.2 days; MST [10]: Toxic (animals died); MST [5]: 9.2 days |
| CCCCCCCCCCCCCCCCCCCCCCC(N)(CO)CO | 1600 | – |
| CCCCCCCCCCC(N)(CO)CO | 440 | – |
| CCCCCCCCC(N)(CO)CO | 3700 | – |

Now from value to compound, other results behind:

| IC50 [1] [nM] | Compound | further results |
| --- | --- | --- |
| 10 | CCCCCCCCCCCCCCCCC(N)(CO)CO | – |
| 130 | CCCCCCCCCCCCCCCCCCC(N)C(=O)O (centres undefined) | – |
| 320 | CCCCCCCCCCCCCCCC[C@@H](O)[C@H](O)C(N)(CO)CO | – |
| 190 | CCCCCCCCCCCCCCCCCCCCC(N)(CO)CO | – |
| 12 | CCCCCCCCCCCCCC(N)(CO)CO | – |
| 56 | CCCCCCCCCCCCC/C=C/C[C@@H](O)[C@H](O)C(N)(CO)CO | – |
| 5.9 | CCCCCCCCCCCCCCC(N)(CO)CO | – |
| 1630 | CCCCCCC(O)CCCCCCCCC[C@@H](O)[C@H](O)C(N)(CO)CO (some centres undefined) | – |
